Laboratory results as given in patent US20250302816A1, “DISRUPTION OF EPITHELIAL BARRIERS FOR MOLECULAR DELIVERY ENHANCEMENT OR EXTRACTION OF EXTRACELLULAR FLUIDS” (The University of Nottingham, priority 2022, published 2025).

Legend:
Calu-3 = experiment: Further in vitro Transwell studies: enhancing translocation of 4 kDa FITC-dextran; type: cell-based, human
Protocol: Exemplary molecules (a)-(1) investigated in coarse dose-response by FD4 delivery in Transwell culture (Calu-3). Each molecule was screened at 5 nM, 1 μM, 200 μM levels.
Each compound was screened at 200 μM level.
Each molecule was screened at 5 nM, 1 μM, 200 μM levels.

[1] = tested on: human primary lung epithelium; experiment: Human primary lung epithelium, air-liquid interface culture: TEER, FD4 and mAb delivery; type: cell-based
MMP = experiment: Fluorogenic MMP activity assay; type: cell-based, human
Protocol: FIG. 5: High-throughput MMP assay (MMP Activity Assay Kit (Fluorometric-Red), Abcam #ab112147) showing the normalised accumulation slope of FRET-based signal (Ex540: Em590 nm) read at 5 minute intervals for one hour in adherent Calu-3 cells cultured in glass-bottomed 96-well plates using a SpectraMax i3x/Biomek FXPP high-throughput platform. Each experiment was conducted in triplicate (error bars). Signal accumulation over time in each well was linearly fitted and the gradient of each fit was scaled against the gradient of the relevant positive control wells, to which active MMP was added directly (mixed isoforms, […]), to obtain the normalised accumulation slope.
To investigate the involvement of MMP in the disruption of tight junctions observed in the presence of 200 μM 3OC12-HSL and C7 PQS, a fluorogenic MMP activity assay was performed, using the Amplite™ Universal Fluorimetric MMP Activity Assay Kit. This kit is designed to check the general activity of a MMP enzyme.
Following treatment with 3OC12-HSL and C7 PQS respectively, the conditioned media were collected every hour from apical chamber and MMP activity was determined by using Amplite™ Universal Fluorimetric MMP Activity Assay Kit Green Fluorescence according to the manufacturer's instructions.
A fluorogenic MMP activity assay was carried out in the same manner on further agents.

Calu-3 cell layers = experiment: FD4 permeability and TEER of polarised Calu-3 cell layers; type: cell-based, human
Calu-3 cells = experiment: MTS assay of metabolic activity / cell viability; type: cell-based, human; settings: 5 nM to 200 μM, 6 hours
Protocol: To assess 3OC12-HSL and C7 PQS molecules cytotoxicity on cell viability of Calu-3 cell layers and to monitor short-term cytotoxicity during experiments, Calu-3 cells were treated with 3OC12-HSL and C7 PQS, at concentrations 5 nM, 1 μM, 50 μM, 100 μM and 200 μM, for 6 hours. At the end of the treatment, cell viability (through measuring metabolic activity) of cultures was determined by chromogenic MTS assay.
The viability of Calu-3 cells was determined by a chromogenic MTS method based on the measuring of mitochondrial respiration, assessed by the reduction of 3-(4,5-dimethylthiazol-2-yl)-5-(3-carboxymethoxyphenyl)-2-(4-sulfophenyl)-2H-tetrazolium to formazan. Calu-3 cells were cultured in a 96-well plate (CellTiter 96® Aqueous, Promega) at a density of 10^4 cells per well and incubated at 37° C., 5% CO2 for 24 hours. After 24 hours, the medium was replaced with 100 μl of test compounds dissolved in HBSS and then cells were incubated for 6 hours. HBSS and Triton X-100 (0.1% v/v in HBSS) were used as the negative and positive controls respectively. Bathing solutions were then aspirated and cells washed with PBS. Then culture medium (100 μl at 37° C.) plus MTS reagent (20 μl) were added into each well and cells were incubated for 2 hours. Absorbance at 492 was measured using a Dynex absorbance microplate reader (Dynex Technologies, USA) and converted into a percentage metabolic rate.

ZO-1 = ZO-1 immunostaining and confocal microscopy of Calu-3 cell layers; type: cell-based, human; settings: 200 μM, one hour, vs vehicle 0.15% DMSO
Protocol: To visualise the effect of 3OC12-HSL and C7 PQS on tight junction integrity in Calu-3 cell layers, ZO-1, immunostaining and confocal microscopy was performed on cell layers treated by 200 μM 3OC12-HSL and C7 PQS and control (0.15% DMSO in HBSS) for one hour. Confluent cell monolayers were washed with PBS and fixed in 4% paraformaldehyde in PBS for approximately 10 min at room temperature. Cells were then washed 3 times with PBS and permeabilised by incubating with Triton X-100 (0.1% v/v in PBS) for 10 min. Cells were then washed with PBS, followed by the application of 1% BSA/PBS for approximately 1 hour. Thereafter, BSA/PBS solution was aspirated and replaced with mouse, anti-human ZO-1 (primary) antibody, diluted in 1% BSA/PBS to a final concentration of 100 μg/ml. Cell samples were incubated with the primary antibody for 2 hours. The primary antibody solution was then removed and cells washed with PBS (5 times). FITC-labelled goat, anti-mouse (secondary) antibody, diluted according to manufacturer's instructions in 1% BSA/PBS was then applied to the cells for 1 hour. The secondary antibody solution was then aspirated and cells washed with PBS three times. […]

ARPE-19 cell layers = experiment: Transwell drug transport across ARPE-19 cell layers with or without 3OC12-HSL; type: cell-based, human; settings: doxorubicin 250 μg/ml apical, after 5 hours
Protocol: FIG. 1: Macromolecular therapeutics transported across ARPE-19 cell layers in the absence and presence of 3OC12-HSL transported into the basolateral chamber over a period of five hours. Permeability experiments were initiated by applying 0.5 ml of the test solutions (250 μg/ml Aflibercept/Bevacizumab/or Doxorubicin diluted in HBSS/HEPES) to the apical side of the cells (donor compartment of the Transwell) with or without 3OC12-HSL (200 μM). Drug permeability was determined by sampling the basolateral solution at regular time intervals. Data points are expressed as means±SEM, derived from three replicates in triplicate. p values of <0.05 were considered statistically significant. *, ** and *** denote p<0.05, p<0.01 and p<0.001, respectively.
Calu-3 cells obtained from American Type Culture Collection, USA were cultured using Dulbecco's Modified Eagle Medium (DMEM) supplemented with penicillin (100 U/mL), streptomycin (0.1 mg/mL), amphotericin (0.25 μg/mL), non-essential amino acids (NEM, 1%) and Fetal Bovine Serum (FBS, 10% v/v, Sigma-Aldrich, UK). The human-derived RPE cell line ARPE-19 was obtained from American Type Culture Collection. Cells were grown in Dulbecco's Modified Eagle Medium: F12 (1:1; Gibco, Invitrogen, Carlsbad, CA), including 10% inactivated fetal bovine serum, 100 units/mL penicillin, 100 μg/mL streptomycin, and 2 mM L-glutamine (Sigma-Aldrich). Caco-2 cells were grown in complete culture medium (DMEM supplemented with 17% FBS and 1% antibiotic-antimycotic solution). All cells were kept in a water-jacketed incubator (model 3546, Forma Scientific, Inc., Marietta, OH, USA) maintained at 37° C. and an atmosphere of humidified air with 5% CO2. Medium was replaced every other day until cells reached the 80-90% confluence desired for re-plating or culturing mature, polarised barrier models.
When confluent, cells were seeded on Transwell® filters (12 mm diameter, 0.4 μm pore size; Corning Life Sciences, Holland) at 10^5 cells/cm^2. […]
Three polarised epithelial in-vitro tissue models, including lung epithelium (Calu-3), retinal pigment epithelium (ARPE-19) and intestinal epithelial (Caco-2) were used to study the efficiency of 200 μM 3OC12-HSL as a paracellular permeability enhancer for three different drugs: bevacizumab, aflibercept and doxorubicin (applied concentrations 250 μg/mL). The amount of drugs transported was determined via the conversion of fluorescence intensity to amount (μg or ng), using calibration curves constructed via serial standard dilutions. […]
Permeability experiments were initiated by applying 0.5 mL of the test solutions to the apical side of the cells (donor compartment of the Transwell®). […] Drug permeability was determined by sampling the basolateral solution at regular time intervals. […]

ex-vivo rat eyes = tested on: ex-vivo rat eyes
Protocol: In order to investigate the efficacy of 3OC12-HSL as drug delivery enhancer in intact tissue, bevacizumab (250 μg/mL: […]) and aflibercept (40 mg/mL: 348 μM) were applied with and without 3OC12-HSL to ex-vivo rat eyes, and the distribution of drugs was visualised within sagittal ocular cryosections by confocal microscopy. A further set of experiments tested efficacy of 3OC12-HSL via ex vivo porcine skin.
Six hooded rats with pigmented eyes, weighing 280-300 g and aged 7-8 weeks were provided by Bio-Support Unit at the Queen's Medical Centre, Nottingham. Experiments were designed to be performed ex-vivo, immediately post-sacrifice, during experiments supporting other studies. Tested therapies (bevacizumab (250 μg/mL), aflibercept (250 μg/mL) with/without 3OC12-HSL (200 μM) were immediately applied post-sacrifice in (50 μL) to the corneal surface of each animal for a period of 1 hour, before being washed off using ice-cold PBS. The eyeballs were enucleated, immersed in OCT, and flash-frozen in isopentane cooled by liquid N2 before being stored at −80° C. for further processing.
OCT-embedded eyes were cut into 15 μm tissue sections using a cryostat (Leica 3050) and mounted on gelatin-coated slides, at cutting temperatures between −15 and −23° C. […]

Compound | Effective in enhancing translocation (Calu-3) | other results
CCCCCCCCCc1[nH]c2ccccc2c(=O)c1CN(C)C [3-C1NMe2 C9 PQS] | No | 
CCCCCC/C=C/Cc1[nH]c2ccccc2c(=O)c1C [3-Me C9: 2. Quinolone] | No | 
CCCCCC/C=C\CCCC(=O)N[C@H]1CCOC1=O [5-cis-C12 HSL] | No | 
CCCCCCCc1[nH]c2cc(F)ccc2c(=O)c1O [7F-C7 PQS] |  | TEER (electrical resistance) upon agent exposure [1]: temporarily reduced; mAb (Mepolizumab) delivery upon agent exposure [1]: increased
CC(C)CCCCCCc1[nH]c2ccccc2c(=O)c1O [7Me-C8-PQS] | Yes | 
Cc1[nH]c2ccccc2c(=O)c1O [C1 PQS (Me PQS)] | Yes | 
CCCC(=O)NC1CCOC1=O (stereo not drawn) [C4 HSL (BHL), N-butyl-homoserine-lactone] |  | MMP activation (further MMP screening) (MMP; assay carried out in the same manner on further agents): cause MMP activation
CCCCCCCc1cc(O)c2ccccc2[n+]1[O-] [C7 HNQ N-oxide] | Yes | 
CCCCCCCc1[nH]c2ccccc2c(=O)c1O [C7 PQS, 2-n-heptyl-3-hydroxy-4 (1H)-quinolone] | Yes | MMP activation in apical samples taken at one-hour intervals (MMP; 200 μM, p<0.01, no fluorescence in control samples): significant MMP activation; period over which MMP activation increased before starting to reduce (MMP; samples taken hourly from apical chamber): 4 h; paracellular passage / flux of FD4 from apical to basolateral chamber (Calu-3 cell layers; 200 μM (3OC12-HSL: 200 μM or 1 μM)): increased the flux of FD4; TEER after 7 hours (Calu-3 cell layers; 200 μM, recovery, SEM+/−20): 510 Ωcm^−2; time after which TEER started increasing / cell layer integrity began to recover (Calu-3 cell layers; during exposure): 5 h; cytotoxic effect on cell viability within epithelial layers (Calu-3 cells): do not have an adverse cytotoxic effect; ZO-1 distribution at tight junctions (ZO-1): considerable dislocation of ZO-1 proteins
CCCCCCCCCc1[nH]c2ccccc2c(=O)c1O [C9 PQS] | Yes | 
CCCCCCCCCCCc1[nH]c2ccccc2c(=O)c1O [C11 PQS] | Yes | 
CCCCCCC/C=C\C(=O)O [Cis-2-decenoic acid, cis-2-decenoic acid] | Yes | 
COc1cccc2c1C(=O)c1c(O)c3c(c(O)c1C2=O)C[C@@](O)(C(=O)CO)C[C@@H]3O[C@H]1C[C@H](N)[C@H](O)[C@H](C)O1 [Doxorubicin, reference compound] |  | amount of drug transported into the basolateral chamber (ARPE-19 cell layers; with 3OC12-HSL (200 μM)): 62.33 µg; amount of drug transported into the basolateral chamber (ARPE-19 cell layers; without 3OC12-HSL): 9.85 µg
CCCCCCCc1cc(O)c2ccccc2n1 [HHQ] | Yes | 
CCCCCCCCCC1=Nc2ccccc2C(=O)C1 [HNQ] | Yes | 
CCCCC(=O)CC(=O)NC1CCOC1=O (stereo not drawn) [OC7-HSL] | Yes | 
CCCCCCCCCC(=O)CC(=O)Nc1nccs1 [OdDAT] |  | TEER (electrical resistance) upon agent exposure [1]: temporarily reduced; mAb (Mepolizumab) delivery upon agent exposure [1]: increased
CCCCCNC(=O)c1[nH]c2ccccc2c(=O)c1O [PQS-C5-Amide] | No | 
CCCCCCCCCCCc1cc(=O)c2ccccc2[nH]1 [UHQ] | Yes | 
Aflibercept: recombinant fusion protein of VEGF-binding portions of human VEGF receptors 1 and 2 and Fc of human IgG1 |  | fluorescence in eye sections (CLSM) (ex-vivo rat eyes): No fluorescence was detected
